Measured values taken from article PMC9501768, “A New Class of Tunable Acid-Sensitive Linkers for Native Drug Release Based on the Trityl Protecting Group” (Bioconjugate Chemistry, 2022).
Where two headings read alike, the source gives them in different places.

Columns and labels:
[1] = Release of native API from API-linker construct in buffer (UHPLC, first-order fit); format: physicochemical
Method: Release of DMXAA-amine 1 from the linker construct 12 (method described in S3.1) was measured at 37 °C for 24 h. At set time points, the concentration of the native compound 1 in a buffer of different pH values was measured by ultrahigh performance liquid chromatography (UHPLC) as shown in Figure 3.
The half-life values (t1/2) were determined from the slope of the first-order kinetic curves fitted through the release curve and are shown in Table 2. Details are provided in Section S3 of the Supporting Information. […]
S3: In vitro release protocol and stability control
S3.1 Release of API from API-linker construct
API-linker constructs 12-16, 17 and 18 were dissolved in DMSO at 1 mg/mL. This was then further diluted 10x in 20 mM sodium phosphate buffer 130 mM NaCl pH 7.4, 100 mM sodium citrate buffer 50 mM NaCl pH 6.5, 20 mM ammonium acetate 130 mM NaCl pH 5.0 or if needed 100 mM sodium phosphate buffer 50 mM NaCl pH 3.0. These dilutions were incubated at 37°C in the sample tray and at different timepoints, the concentration of free API 1, 2, or 3 was measured on a H-class UPLC system (Waters) (Figure S7 and S8)
Figure S 7: Chromatogram of 15 at 37°C, pH 7.4 t=0 hours
(1 picture or pasted object on this page, not shown here)
Figure S 8: Chromatogram of 15 at 37°C, pH 7.4, t= 12 hours […]
injection volume, 30 °C column temperature. Run with the following gradient: […]
Time (min) Flow rate %A %B
With A: 25 mM Ammonium acetate buffer pH 5.0 and B: acetonitrile.
2: Acquity HSS T3 1.7 μm, 50 x 2.1 mm column for 18 at 275 nm, 5.0 µL injection volume, 30 °C column temperature. Run with the following gradient: […]
Time (min) Flow rate % A % B
With A: phosphate buffer pH 2.5 and B: methanol.
3: Acquity BEH C18 1.7 μm, 50 x 2.1 mm for 18 at 233 nm, 2.0 µL injection volume, 30 °C column […]
With A: 10 mM ammonium bicarbonate pH 9.6 and B: acetonitrile.
Measured concentrations were plotted using GraphPad Prism 9 and fitted based on first order kinetics.
All fitted lines complied with an R2>0.95. This gave the half-life and plateau when this was not reached within the measured timeframe. […]
Size of all particles were confirmed to be between 55 and 70 nm.

[2] = as above; format: physicochemical; conditions: pH 5.0, 37 °C
[3] = set-up: method as in PMID 14644; conditions: doxorubicin amine nitrogen bound to trityl; cited from earlier work
[4] = ammonium acetate buffer, pH 5, API-trityl linker construct in buffer, pH 5.0, 37 °C, read-out: t1/2 pH 5.0 (converted)
[5] = sodium citrate buffer, pH 6.5, API-trityl linker construct in buffer, pH 6.5, 37 °C, read-out: t1/2 pH 6.5 (converted)
[6] = sodium phosphate buffer, pH 7.4, API-trityl linker construct in buffer, pH 7.4, 37 °C, values for 17 are estimations (doxorubicin precipitation), read-out: t1/2 pH 7.4 (converted)

half-life at 0.1 mg/mL [1, 4]	half-life at 0.1 mg/mL [1, 5]	half-life at 0.1 mg/mL [1, 6]	SMILES	further results
< 1 h	1.2 ± 0.1 h	4.2 ± 0.2 h	C=C(C)C(=O)NCCCNC(=O)c1ccc(C(Nc2ccc(CC(=O)[O-])c3oc4c(C)c(C)ccc4c(=O)c23)(c2ccc(OC)c(OC)c2)c2ccc(OC)c(OC)c2)cc1.[Li+] [compound 13]	
< 1 h	< 1 h	< 1 h	C=C(C)C(=O)NCCCNC(=O)c1ccc(C(Nc2ccc(CC(=O)[O-])c3oc4c(C)c(C)ccc4c(=O)c23)(c2ccc(OC)cc2OC)c2ccc(OC)cc2OC)cc1.[Li+] [compound 14]	
< 1 h	1.9 ± 0.2 h		C=C(C)C(=O)NCCCNC(=O)c1ccc(C(Nc2ccc(CC(=O)[O-])c3oc4c(C)c(C)ccc4c(=O)c23)(c2ccc(OC)c(C)c2)c2ccc(OC)c(C)c2)cc1.[Li+] [compound 15]	

Second part, the molecule before the results:

SMILES	half-life at 0.1 mg/mL [1, 4]	half-life at 0.1 mg/mL [1, 5]	half-life at 0.1 mg/mL [1, 6]	further results
COc1cccc2c1C(=O)c1c(O)c3c(c(O)c1C2=O)C[C@@](O)(C(=O)CO)C[C@@H]3O[C@H]1C[C@H](N)[C@H](O)[C@H](C)O1 [compound 2, doxorubicin, reference compound]	< 1 h			
Nc1ccn([C@@H]2O[C@H](CO)[C@@H](O)C2(F)F)c(=O)n1 [compound 3, gemcitabine]				release at pH 5.0 within 72 h [2]: no detectable release
C=C(C)C(=O)NCCCNC(=O)c1cccc(C(Nc2ccc(CC(=O)[O-])c3oc4c(C)c(C)ccc4c(=O)c23)(c2ccc(OC)cc2)c2ccc(OC)cc2)c1.[Li+] [compound 12]	1.8 ± 0.1 h	83 ± 27 h		release of native DMXAA-amine 1 at pH 5 ([1]; construct in buffer, pH 5, 37 °C, within 12 h): 100%; release of native DMXAA-amine 1 at pH 6.5 ([1]; construct in buffer, pH 6.5, 37 °C, over 24 h): ~20%; release of native DMXAA-amine 1 at pH 7.4 ([1]; construct in buffer, pH 7.4, 37 °C, over 24 h): Hardly any release
C=C(C)C(=O)NCCCNC(=O)c1cccc(C(Nc2ccc(CC(=O)[O-])c3oc4c(C)c(C)ccc4c(=O)c23)(c2ccc(OC)c(OC)c2)c2ccc(OC)c(OC)c2)c1.[Li+] [compound 16]	< 1 h	< 1 h	2.3 ± 0.1 h	
C=C(C)C(=O)NCCCNC(=O)c1cccc(C(N[C@H]2C[C@H](O[C@H]3C[C@](O)(C(=O)CO)Cc4c(O)c5c(c(O)c43)C(=O)c3c(OC)cccc3C5=O)O[C@@H](C)[C@H]2O)(c2ccc(OC)cc2)c2ccc(OC)cc2)c1 [compound 17]				pKa of the most basic nitrogen [3]: 8.4; half-life at 0.1 mg/mL ([1]; API-trityl linker construct in buffer, pH 5.0, 37 °C, read-out: t1/2 pH 5.0 (converted)): < 1 h; half-life at 0.1 mg/mL ([1]; API-trityl linker construct in buffer, pH 7.4, 37 °C, values for 17 are estimations (doxorubicin precipitation), read-out: t1/2 pH 7.4 (converted)): ~6 h
C=C(C)C(=O)NCCCNC(=O)c1cccc(C(Nc2ccn([C@@H]3O[C@H](CO)[C@@H](O)C3(F)F)c(=O)n2)(c2ccc(OC)cc2)c2ccc(OC)cc2)c1 [compound 18]	> 72 h		> 72 h	t1/2 pH 3.0 (h) ([1]; API-trityl linker construct in buffer, pH 3.0, 37 °C, listed as gem–trityl 18): 23.2 ± 0.5 h; half-life at 0.1 mg/mL ([1]; sodium phosphate buffer, pH 3, API-trityl linker construct in buffer, pH 3.0, 37 °C, read-out: t1/2 pH 3.0 (converted)): 23.3 h
